For 33 compounds, EC50 results are on record in patent US20230339886A1 (University of Florida Research Foundation, Incorporated, priority 2020, published 2023).

The target of the first assay is T1, REV-ERBα LBD (human; residues 281-614 Δ324-422) (Homo sapiens, UniProt P20393, DEL324-422).
T1 construct: 6×Histag-REV-ERBα LBD (human; residues 281-614 Δ324-422); made in house; host or cells: Escherichia coli
T1 sequence (P20393 with tags, fused parts or gaps DEL324-422): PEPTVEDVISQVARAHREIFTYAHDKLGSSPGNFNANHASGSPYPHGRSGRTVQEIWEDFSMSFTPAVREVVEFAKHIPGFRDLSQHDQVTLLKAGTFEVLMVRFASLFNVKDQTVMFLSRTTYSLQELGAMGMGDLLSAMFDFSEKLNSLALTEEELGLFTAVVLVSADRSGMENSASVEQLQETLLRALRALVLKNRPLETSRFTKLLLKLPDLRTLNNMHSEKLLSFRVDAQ
T1 sequence (Q9Y618 2335-2356 partner limits assumed): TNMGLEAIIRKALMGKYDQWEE
Put plainly: TR-FRET corepressor interaction assay (REV-ERBα LBD, FITC-SMRT peptide). In kind it is biochemical. The note with it: FITC-SMRT peptide, read-out: REVERBα agonism (EC50 class, FRET assay). On the procedure:
TR-FRET corepressor interaction assay. The time-resolved fluorescence resonance energy transfer (TR-FRET) assay was performed in black low-volume 384-well plates (Greiner). […] Ligand stocks were prepared via serial dilution in DMSO, added to wells in triplicate, and plates were incubated at 4° C. for 2 h and read using a BioTek Synergy Neo multimode plate reader. The Tb donor was excited at 340 nm; its fluorescence emission was monitored at 495 nm, and the acceptor FITC emission was measured at 520 nm; and the TR-FRET ratio was calculated as the signal at 520 nm divided by the signal at 495 nm. Data were plotted using GraphPad Prism as TR-FRET ratio vs. ligand concentration and fit to sigmoidal dose response curve equation.
In general terms: TR-FRET usually uses a lanthanide donor and a delayed reading to cut background.
For orientation: EC50 means the concentration needed to bring the measured effect to its halfway point. In the case of `CC(C)(C)Cn1cc([C@H](NS(=O)(=O)C2CCC2)C(F)(F)F)c2cc(F)c(-c3ccccc3C(F)(F)F)nc21` [Example 525, (S)—N-(2,2,2-trifluoro-1-(5-fluoro-1-neopentyl-6-(2-(trifluoromethyl)phenyl)-1H-pyrrolo[2,3-b]pyridin-3-yl)ethyl)cyclobutanesulfonamide], the half-maximal effective concentration (EC50) is below 500 nM.

Regarding `CC(C)(C)Cn1cc([C@H](NS(=O)(=O)C2CC2)C(F)(F)F)c2ccc(-c3cccc(C#N)c3F)cc21` [Example 473, (S)—N-(1-(6-(3-cyano-2-fluorophenyl)-1-neopentyl-1H-indol-3-yl)-2,2,2-trifluoroethyl)cyclopropanesulfonamide], the EC50 was 500 to 3000 nM.

As for `CCC(C)n1cc([C@H](NS(=O)(=O)C2CCC2)C(F)(F)F)c2ccc(-c3ccccc3C(F)(F)F)cc21` (stereo partly drawn) [Example 446, N-((1S)-1-(1-(sec-butyl)-6-(2-(trifluoromethyl)phenyl)-1H-indol-3-yl)-2,2,2-trifluoroethyl)cyclobutanesulfonamide], the EC50 was below 500 nM. The same measure, in the same setting: to `CC(C)(C)Cn1cc(CCNS(=O)(=O)C2CC2)c2ccc(-c3cc(C(F)(F)F)ccc3Cl)cc21` [Example 484, N-(2-(6-(2-chloro-5-(trifluoromethyl)phenyl)-1-neopentyl-1H-indol-3-yl)ethyl)cyclopropanesulfonamide] belongs below 500 nM. Still for that read-out and setting: then `CC(C)(C)Cn1cc([C@H](NS(=O)(=O)C2CCC2)C(F)(F)F)c2cc(F)c(-c3cccc4c3CCCC4)cc21` [Example 479, N-[(1S)-1-[1-(2,2-dimethylpropyl)-5-fluoro-6-tetralin-5-yl-indol-3-yl]-2,2,2-trifluoro-ethyl]cyclobutanesulfonamide], with below 500 nM; and `CC(C)(C)Cn1cc([C@H](NS(=O)(=O)C2CCC2)C(F)(F)F)c2ccc(-c3ccccc3C#N)cc21` [Example 495, (S)—N-(1-(6-(2-cyanophenyl)-1-neopentyl-1H-indol-3-yl)-2,2,2-trifluoroethyl)cyclobutanesulfonamide], with below 500 nM; and `CC(C)(C)Cn1cc([C@H](NS(=O)(=O)C2CC2)C(F)(F)F)c2ccc(-c3ncccc3Cl)cc21` [Example 467, (S)—N-(1-(6-(3-chloropyridin-2-yl)-1-neopentyl-1H-indol-3-yl)-2,2,2-trifluoroethyl)cyclopropanesulfonamide], with 500 to 3000 nM. With `CC(C)(C)Cn1cc([C@H](NS(=O)(=O)C2CCC2)C(F)(F)F)c2cc(F)c(-c3ncccc3C#N)cc21` [Example 538, (S)—N-(1-(6-(3-cyanopyridin-2-yl)-5-fluoro-1-neopentyl-1H-indol-3-yl)-2,2,2-trifluoroethyl)cyclobutanesulfonamide], the EC50 was below 500 nM. Take `CC(NS(=O)(=O)C1CCC1)c1cn(CC2CCCC2)c2cc(-c3ccccc3C(F)(F)F)ccc12` (stereo not drawn) [Example 510, N-(1-(1-(cyclopentylmethyl)-6-(2-(trifluoromethyl)phenyl)-1H-indol-3-yl)ethyl)cyclobutanesulfonamide]: the EC50 was below 500 nM.

The assay is the same for the next values; noted with them: Table 2, read-out: REVERBα agonism (EC50 class, FRET assay).
On to `CC(C)(C)Cc1cn(CCNS(=O)(=O)C2CCC2)c2ccc(-c3ccc(C(F)(F)F)cc3C(F)(F)F)cc12` [Example 418, N-(2-(5-(2,4-bis(trifluoromethyl)phenyl)-3-neopentyl-1H-indol-1-yl)ethyl)cyclobutanesulfonamide], for which the EC50 is below 500 nM. Regarding `CC(C)Cn1cc(C(C)CNS(=O)(=O)C2CC2)c2ccc(-c3ccccc3)cc21` (stereo not drawn) [Compound 256], the EC50 is above 3000 nM. On the same count and under the same terms, to `CC(C)Cn1cc(CCNS(=O)(=O)N(C)C)c2ccc(-c3ccncc3C(F)(F)F)cc21` [Compound 206, dimethyl({2-[1-(2-methylpropyl)-6-[3-(trifluoromethyl)pyridin-4-yl]-1H-indol-3-yl]ethyl}sulfamoyl)amine] belongs below 500 nM. Take `CC(C)(C)Cc1cn(CCNS(=O)(=O)C2CC2)c2ccc(-c3nccc4ccccc34)cc12` [Example 215, N-(2-(5-(isoquinolin-1-yl)-3-neopentyl-1H-indol-1-yl)ethyl)cyclopropane-sulfonamide]: the EC50 was above 3000 nM. Still for that read-out and setting: then `CC(C)(C)Cc1cn(CCNS(=O)(=O)C2CC2)c2ccc(-c3ccccc3Cl)cc12` [Example 213, N-(2-(5-(2-chlorophenyl)-3-neopentyl-1H-indol-1-yl)ethyl)cyclopropanesulfonamide], with below 500 nM; and `CC(C)Cn1cc(CCNS(=O)(=O)N(C)C)c2ccc(-c3cnoc3)cc21` [Compound 65, dimethyl({2-[1-(2-methylpropyl)-6-(1,2-oxazol-4-yl)-1H-indol-3-yl]ethyl}sulfamoyl)amine], with 500 to 3000 nM. Same read-out and setting: then `CN(C)S(=O)(=O)NCCc1cn(CC(F)(F)F)c2cc(Br)ccc12` [Example 158, ({2-[6-bromo-1-(2,2,2-trifluoroethyl)-1H-indol-3-yl]ethyl}sulfamoyl)dimethylamine], with 500 to 3000 nM. Still for that read-out and setting: to `COc1ccccc1-c1ccc2c(c1)c(CC(C)(C)C)cn2CCNS(=O)(=O)C1CC1` [Example 303, N-(2-(5-(2-methoxyphenyl)-3-neopentyl-1H-indol-1-yl)ethyl)cyclopropane-sulfonamide] belongs below 500 nM. With `CC(C)(C)Cc1cn(CCNS(=O)(=O)C2CC2)c2ccc(-c3ccc4cc(O)ccc4c3)cc12` [Example 211, N-(2-(5-(6-hydroxynaphthalen-2-yl)-3-neopentyl-1H-indol-1-yl)ethyl)cyclopropane sulfonamide], the EC50 lay within 500 to 3000 nM.

`COC(C)(C)Cn1cc([C@H](NS(=O)(=O)C2CCC2)C(F)(F)F)c2cc(F)c(-c3ccccc3C(F)(F)F)cc21` [Example 391, N-[(1S)-2,2,2-trifluoro-1-[5-fluoro-1-(2-methoxy-2-methyl-propyl)-6-[2-(trifluoromethyl)phenyl]indol-3-yl]ethyl]cyclobutanesulfonamide]: the EC50 is below 500 nM. On the same count and under the same terms, then `CN(C)S(=O)(=O)NCCc1cn(Cc2ccncc2)c2cc(Br)ccc12` [Example 162, [(2-{6-bromo-1-[(pyridin-4-yl)methyl]-1H-indol-3-yl}ethyl)sulfamoyl]dimethylamine], with 500 to 3000 nM; and `Cc1ccc(-c2ccc3c(CCNS(=O)(=O)N(C)C)cn(CC(C)C)c3c2)cc1` [Example 48, N-{2-[6-(4-methylphenyl)-1-(2-methylpropyl)-1H-indol-3-yl]ethyl}-N,N-dimethylsulfuric diamide], with 500 to 3000 nM. `CC(C)Cn1cc(CCNS(=O)(=O)N(C)C)c2ccc(NC(C)C)cc21` [Example 111, N-{2-[6-isopropylamino-1-(2-methylpropyl)-1H-indol-3-yl]ethyl}-N,N-dimethylsulfuric diamide]: the 50% effective concentration (EC50) was 500 to 3000 nM. The same measure, in the same setting: then `CN(C)S(=O)(=O)NCCn1cc(CC(C)(C)C)c2cc(-c3ccccc3Cl)ccc21` [Example 190, N-{2-[5-(2-chlorophenyl)-3-(2,2-dimethylpropyl)-1H-indol-1-yl]ethyl}-N,N-dimethyl-sulfuric diamide], with below 500 nM. Same read-out and setting: then `CC(NS(=O)(=O)N(C)C)c1cn(C(=O)C(C)(C)C)c2cc(-c3ccncc3)ccc12` (stereo not drawn) [Example 197, 1-(3-{1-[(dimethylsulfamoyl)amino]ethyl}-6-(pyridin-4-yl)-1H-indol-1-yl)-2,2-dimethylpropan-1-one], with below 500 nM; and `Cc1cc(-c2ccncc2)cc2c1c(CCNS(=O)(=O)N(C)C)cn2CC(C)C` [Example 202, dimethyl({2-[4-methyl-1-(2-methylpropyl)-6-(pyridin-4-yl)-1H-indol-3-yl]ethyl}sulfamoyl)amine], with above 3000 nM. As for `C=C(C)c1ccc2c(CCNS(=O)(=O)N(C)C)cn(CC(C)C)c2c1` [Example 88], the EC50 was below 500 nM. On the same count and under the same terms, to `CC(C)Cn1cc(CCNS(=O)(=O)N(C)C)c2ccc(-c3ncco3)cc21` [Compound 67, dimethyl({2-[1-(2-methylpropyl)-6-(1,3-oxazol-2-yl)-1H-indol-3-yl]ethyl}sulfamoyl)amine] belongs 500 to 3000 nM; to `CC(C)(C)Cn1cc([C@H](NS(=O)(=O)C2CCC2)C(F)(F)F)c2ccc(C(F)(F)F)cc21` [Example 416, (S)—N-(2,2,2-trifluoro-1-(1-neopentyl-6-(trifluoromethyl)-1H-indol-3-yl)ethyl)cyclobutanesulfonamide], above 3000 nM.

With `CC(C)(C)Cn1cc([C@H](NS(=O)(=O)C2CC2)C(F)(F)F)c2cc(F)c(-c3c(F)cccc3C(F)(F)F)cc21` [Example 351, N-((1S)-2,2,2-trifluoro-1-(5-fluoro-6-(2-fluoro-6-(trifluoromethyl)phenyl)-1-neopentyl-1H-indol-3-yl)ethyl)cyclopropanesulfonamide], the EC50 was below 500 nM. `CC(C)Cn1cc([C@H](NS(=O)(=O)C2CC2)C(F)(F)F)c2cc(F)c(C3CC3)cc21` [Example 315, (S)—N-(1-(6-cyclopropyl-5-fluoro-1-isobutyl-1H-indol-3-yl)-2,2,2-trifluoroethyl)cyclopropanesulfonamide]: the EC50 was below 500 nM. Still for that read-out and setting: then `CN(C)C(=O)Cn1cc(CCNS(=O)(=O)N(C)C)c2ccc(Br)cc21` [Example 167, 2-(6-bromo-3-(2-((N,N-dimethylsulfamoyl)amino)ethyl)-1H-indol-1-yl)-N,N-dimethylacetamide], with 500 to 3000 nM; and `CN(C)S(=O)(=O)NCCn1cc(CC(C)(C)C)c2cc(-c3ccncc3)ccc21` [Example 189, N-{2-[5-(pyridin-4-yl)-3-(2,2-dimethylpropyl)-1H-indol-1-yl]ethyl}-N,N-dimethylsulfuric diamide], with below 500 nM; and `CN(C)S(=O)(=O)NCCc1cn(CC2CC2)c2cc(-c3ccncc3)ccc12` [Compound 7], with below 500 nM.
